Data from ChEMBL document CHEMBL5291721, “A preclinical secondary pharmacology resource illuminates target-adverse drug reaction associations of marketed drugs” (Nat Commun, 2023).

Tests used:
[1] = biological target: Beta-1 adrenergic receptor (Homo sapiens, UniProt P08588); assay type: functional
[2] = biological target: Beta-2 adrenergic receptor (Homo sapiens, UniProt P07550)
[3] = biological target: T1, Muscarinic acetylcholine receptor M2 (Homo sapiens, UniProt P08172); assay type: functional, cell-based
T1 sequence (P08172 whole entry): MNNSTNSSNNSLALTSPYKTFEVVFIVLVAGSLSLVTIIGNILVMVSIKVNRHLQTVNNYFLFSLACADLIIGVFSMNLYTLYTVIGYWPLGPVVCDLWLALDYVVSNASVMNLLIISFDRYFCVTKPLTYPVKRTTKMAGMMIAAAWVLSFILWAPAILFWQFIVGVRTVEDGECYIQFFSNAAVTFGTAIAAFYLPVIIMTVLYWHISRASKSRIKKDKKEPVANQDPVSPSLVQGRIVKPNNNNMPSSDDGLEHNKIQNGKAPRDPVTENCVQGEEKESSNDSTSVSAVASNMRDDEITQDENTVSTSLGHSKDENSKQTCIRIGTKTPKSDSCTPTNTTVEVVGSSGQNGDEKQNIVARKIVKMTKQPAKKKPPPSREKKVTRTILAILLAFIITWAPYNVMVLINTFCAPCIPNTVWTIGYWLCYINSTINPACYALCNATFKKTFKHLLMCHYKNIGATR

Cannabinoid receptor 1 = Cannabinoid receptor 1 (Homo sapiens, UniProt P21554); assay type: functional, cell-based
[4] = biological target: Glutamate receptor ionotropic, NMDA 1 (Rattus norvegicus, UniProt P35439)
Glucocorticoid receptor = biological target: T2, Glucocorticoid receptor (Homo sapiens, UniProt P04150)
T2 sequence (P04150 whole entry): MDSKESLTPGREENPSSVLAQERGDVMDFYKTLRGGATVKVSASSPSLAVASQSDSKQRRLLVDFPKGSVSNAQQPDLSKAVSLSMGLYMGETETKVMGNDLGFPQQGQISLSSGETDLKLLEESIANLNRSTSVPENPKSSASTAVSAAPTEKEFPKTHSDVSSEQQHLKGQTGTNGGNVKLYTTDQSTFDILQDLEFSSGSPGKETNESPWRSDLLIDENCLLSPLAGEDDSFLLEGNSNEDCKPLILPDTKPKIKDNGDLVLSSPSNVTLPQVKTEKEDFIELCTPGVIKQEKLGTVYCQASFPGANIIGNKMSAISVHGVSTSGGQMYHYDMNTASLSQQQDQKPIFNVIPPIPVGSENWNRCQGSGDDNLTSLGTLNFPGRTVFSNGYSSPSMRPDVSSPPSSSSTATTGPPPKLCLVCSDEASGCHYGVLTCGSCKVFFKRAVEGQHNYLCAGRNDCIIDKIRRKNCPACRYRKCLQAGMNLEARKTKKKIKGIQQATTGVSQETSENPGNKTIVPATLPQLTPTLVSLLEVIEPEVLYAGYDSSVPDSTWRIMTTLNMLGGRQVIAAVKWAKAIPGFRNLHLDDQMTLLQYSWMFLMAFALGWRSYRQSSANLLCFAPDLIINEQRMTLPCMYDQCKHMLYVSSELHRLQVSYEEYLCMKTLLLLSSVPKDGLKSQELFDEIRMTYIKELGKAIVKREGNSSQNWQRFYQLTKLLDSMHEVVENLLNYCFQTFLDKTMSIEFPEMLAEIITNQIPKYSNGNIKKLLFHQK

[5] = biological target: Sodium-dependent serotonin transporter (Homo sapiens, UniProt P31645)
[6] = biological target: T3, Alpha-1A adrenergic receptor (Homo sapiens, UniProt P35348); assay type: functional, cell-based
T3 sequence (P35348 whole entry): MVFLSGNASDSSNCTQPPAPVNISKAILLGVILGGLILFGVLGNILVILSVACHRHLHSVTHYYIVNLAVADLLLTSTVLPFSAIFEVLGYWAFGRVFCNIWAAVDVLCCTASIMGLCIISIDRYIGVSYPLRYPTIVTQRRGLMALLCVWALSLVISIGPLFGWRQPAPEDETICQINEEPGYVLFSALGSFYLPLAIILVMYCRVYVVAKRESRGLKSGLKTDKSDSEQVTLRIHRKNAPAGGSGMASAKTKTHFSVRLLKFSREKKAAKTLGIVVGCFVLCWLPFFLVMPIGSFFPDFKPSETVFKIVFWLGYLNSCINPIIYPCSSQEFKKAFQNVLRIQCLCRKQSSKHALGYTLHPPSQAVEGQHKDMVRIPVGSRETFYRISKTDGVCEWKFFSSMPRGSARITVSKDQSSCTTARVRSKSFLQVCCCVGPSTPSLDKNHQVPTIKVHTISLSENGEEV

[7] = biological target: T3, Alpha-1A adrenergic receptor; assay type: functional, cell-based; remark: listed apart in the source
Progesterone receptor = biological target: T4, Progesterone receptor (Homo sapiens, UniProt P06401)
T4 sequence (P06401 whole entry): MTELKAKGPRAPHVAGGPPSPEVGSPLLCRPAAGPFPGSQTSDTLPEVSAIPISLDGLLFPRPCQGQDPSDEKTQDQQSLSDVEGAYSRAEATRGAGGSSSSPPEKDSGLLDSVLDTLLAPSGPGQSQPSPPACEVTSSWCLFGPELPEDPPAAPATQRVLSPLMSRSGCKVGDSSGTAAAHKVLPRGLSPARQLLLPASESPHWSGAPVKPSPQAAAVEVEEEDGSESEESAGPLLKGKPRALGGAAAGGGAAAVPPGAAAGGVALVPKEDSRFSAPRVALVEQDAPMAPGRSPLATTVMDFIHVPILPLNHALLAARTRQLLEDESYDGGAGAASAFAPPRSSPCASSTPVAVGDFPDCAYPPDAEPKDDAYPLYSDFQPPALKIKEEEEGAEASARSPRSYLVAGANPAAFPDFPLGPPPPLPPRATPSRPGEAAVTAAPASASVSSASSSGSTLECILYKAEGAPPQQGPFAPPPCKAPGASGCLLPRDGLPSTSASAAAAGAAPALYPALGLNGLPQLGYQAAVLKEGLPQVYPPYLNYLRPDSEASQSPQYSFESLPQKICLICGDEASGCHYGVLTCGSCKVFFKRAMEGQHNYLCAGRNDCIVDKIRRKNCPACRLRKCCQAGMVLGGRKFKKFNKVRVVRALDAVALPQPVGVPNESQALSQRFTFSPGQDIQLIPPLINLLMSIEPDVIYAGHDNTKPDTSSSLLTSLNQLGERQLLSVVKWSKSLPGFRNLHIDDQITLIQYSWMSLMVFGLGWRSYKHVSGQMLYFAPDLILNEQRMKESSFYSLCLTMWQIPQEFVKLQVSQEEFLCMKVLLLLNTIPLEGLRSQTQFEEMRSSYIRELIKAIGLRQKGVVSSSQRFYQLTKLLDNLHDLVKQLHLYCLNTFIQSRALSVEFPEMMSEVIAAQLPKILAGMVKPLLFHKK
Also: assay procedure not described here.

Sequence of Sodium-dependent serotonin transporter (P31645 whole entry): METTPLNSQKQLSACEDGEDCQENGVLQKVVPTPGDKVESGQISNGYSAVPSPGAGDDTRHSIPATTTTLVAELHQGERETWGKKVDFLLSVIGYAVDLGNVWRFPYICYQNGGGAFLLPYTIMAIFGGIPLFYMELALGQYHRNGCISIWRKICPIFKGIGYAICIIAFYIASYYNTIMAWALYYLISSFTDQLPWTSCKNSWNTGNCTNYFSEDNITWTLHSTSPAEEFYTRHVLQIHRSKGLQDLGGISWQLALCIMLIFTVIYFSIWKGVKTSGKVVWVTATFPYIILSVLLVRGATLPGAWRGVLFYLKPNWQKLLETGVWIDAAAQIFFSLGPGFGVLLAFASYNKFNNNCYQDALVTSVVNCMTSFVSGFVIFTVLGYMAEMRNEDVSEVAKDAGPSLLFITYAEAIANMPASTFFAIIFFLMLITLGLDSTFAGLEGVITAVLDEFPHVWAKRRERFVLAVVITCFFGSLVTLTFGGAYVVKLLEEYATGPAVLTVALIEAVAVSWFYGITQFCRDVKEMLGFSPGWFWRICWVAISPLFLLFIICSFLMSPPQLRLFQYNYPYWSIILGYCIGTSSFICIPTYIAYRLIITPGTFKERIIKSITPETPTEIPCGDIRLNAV
Sequence of Cannabinoid receptor 1 (P21554 whole entry): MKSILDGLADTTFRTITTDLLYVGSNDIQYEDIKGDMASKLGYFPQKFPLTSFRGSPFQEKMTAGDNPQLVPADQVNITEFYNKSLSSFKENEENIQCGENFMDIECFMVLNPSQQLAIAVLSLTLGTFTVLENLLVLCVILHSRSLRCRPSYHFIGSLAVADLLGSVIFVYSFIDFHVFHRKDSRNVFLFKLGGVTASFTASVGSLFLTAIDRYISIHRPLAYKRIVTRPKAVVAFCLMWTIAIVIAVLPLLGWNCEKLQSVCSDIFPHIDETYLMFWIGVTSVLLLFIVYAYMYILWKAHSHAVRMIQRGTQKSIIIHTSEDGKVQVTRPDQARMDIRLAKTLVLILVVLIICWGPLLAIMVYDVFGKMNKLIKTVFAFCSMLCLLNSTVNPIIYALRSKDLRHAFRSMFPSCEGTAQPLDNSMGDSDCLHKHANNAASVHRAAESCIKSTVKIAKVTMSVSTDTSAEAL
Sequence of Beta-1 adrenergic receptor (P08588 whole entry): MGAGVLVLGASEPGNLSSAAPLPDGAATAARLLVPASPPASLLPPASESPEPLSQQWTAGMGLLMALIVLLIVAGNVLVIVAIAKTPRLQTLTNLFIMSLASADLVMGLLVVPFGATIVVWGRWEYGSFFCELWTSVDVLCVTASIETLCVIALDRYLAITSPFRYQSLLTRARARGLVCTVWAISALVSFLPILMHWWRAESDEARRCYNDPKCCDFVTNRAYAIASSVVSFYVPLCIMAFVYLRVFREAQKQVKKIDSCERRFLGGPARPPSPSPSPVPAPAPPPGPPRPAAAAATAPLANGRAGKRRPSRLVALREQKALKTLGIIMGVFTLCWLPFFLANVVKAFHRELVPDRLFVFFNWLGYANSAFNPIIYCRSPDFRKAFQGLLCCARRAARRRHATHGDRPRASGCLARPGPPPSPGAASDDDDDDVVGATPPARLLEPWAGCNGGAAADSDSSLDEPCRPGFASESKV
Sequence of Beta-2 adrenergic receptor (P07550 whole entry): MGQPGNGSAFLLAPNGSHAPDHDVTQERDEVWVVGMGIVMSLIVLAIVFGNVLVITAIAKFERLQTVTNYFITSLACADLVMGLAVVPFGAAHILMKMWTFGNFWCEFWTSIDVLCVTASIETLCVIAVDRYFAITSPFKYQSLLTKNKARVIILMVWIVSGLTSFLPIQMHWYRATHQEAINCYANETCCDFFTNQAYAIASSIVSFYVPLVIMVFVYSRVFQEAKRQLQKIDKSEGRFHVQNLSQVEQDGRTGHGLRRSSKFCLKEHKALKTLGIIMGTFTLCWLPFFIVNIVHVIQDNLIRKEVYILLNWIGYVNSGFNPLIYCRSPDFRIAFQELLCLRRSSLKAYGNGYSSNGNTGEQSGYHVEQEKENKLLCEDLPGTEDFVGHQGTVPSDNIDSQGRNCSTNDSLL

| AC50 [1] [µM] | AC50 [2] [µM] | AC50 [3] [µM] | AC50 [4] [µM] | AC50 (Glucocorticoid receptor) [µM] | AC50 [5] [µM] | Compound | AC50 (Cannabinoid receptor 1) [µM] | AC50 [6] [µM] | AC50 [7] [µM] | AC50 (Progesterone receptor) [µM] |
| --- | --- | --- | --- | --- | --- | --- | --- | --- | --- | --- |
| > 30 | > 30 | > 30 | > 30 | > 30 | > 30 | COC(=O)N[C@H](C(=O)N1CCC[C@H]1c1nc(-c2ccc(-c3ccc(-c4c[nH]c([C@@H]5CCCN5C(=O)[C@@H](NC(=O)OC)C(C)C)n4)cc3)cc2)c[nH]1)C(C)C |  |  |  |  |
|  |  | > 10 |  |  | 17 | CC(=O)c1ccc2c(c1)N(CCCN1CCN(CCO)CC1)c1ccccc1S2 [ACETOPHENAZINE] | > 30 |  |  |  |
| > 10 | > 10 | > 10 | > 10 | > 30 | > 30 | COC(=O)N[C@H](C(=O)N[C@@H](Cc1ccccc1)[C@@H](O)CN(Cc1ccc(-c2ccccn2)cc1)NC(=O)[C@@H](NC(=O)OC)C(C)(C)C)C(C)(C)C [ATAZANAVIR] |  |  |  |  |
| 18 |  |  |  |  | 3.5 | CN1CCCC(n2nc(Cc3ccc(Cl)cc3)c3ccccc3c2=O)CC1 (stereo not drawn) [AZELASTINE] | > 30 |  |  |  |
|  |  | > 10 | > 10 | > 30 | > 10 | CC(C)NCC(O)COc1ccc(COCCOC(C)C)cc1 (stereo not drawn) [BISOPROLOL] |  |  |  |  |
| > 30 | > 30 | > 30 | > 30 | > 30 | > 30 | COc1ccc2c(c1)C(=O)N(CCc1ccc(S(=O)(=O)NC(=O)NC3CCCCC3)cc1)C(=O)C2(C)C [GLIQUIDONE] |  |  |  |  |
|  | > 10 | > 10 | > 10 | > 10 | > 10 | CC(C(=O)O)c1ccc(C(=O)c2cccs2)cc1 (stereo not drawn) [SUPROFEN] |  |  |  |  |
| > 10 | > 10 | > 10 | > 10 | > 30 | > 30 | Cc1ccc(C(=O)c2cc(O)c(O)c([N+](=O)[O-])c2)cc1 [TOLCAPONE] |  |  |  |  |
|  |  | > 30 |  |  | 2.8 | OCc1cc([C@@H](O)CNCCCCCCOCCOCc2c(Cl)cccc2Cl)ccc1O [VILANTEROL] | > 30 |  |  |  |
| > 30 | > 10 | > 30 | > 30 |  | > 30 | O=C(CCCCCCC(=O)Nc1ccccc1)NO [VORINOSTAT] | > 30 |  |  |  |

More lines, now with the values behind:

| Compound | AC50 [1] [µM] | AC50 [2] [µM] | AC50 [3] [µM] | AC50 [4] [µM] | AC50 (Glucocorticoid receptor) [µM] | AC50 [5] [µM] | AC50 (Cannabinoid receptor 1) [µM] | AC50 [6] [µM] | AC50 [7] [µM] | AC50 (Progesterone receptor) [µM] |
| --- | --- | --- | --- | --- | --- | --- | --- | --- | --- | --- |
| CO/N=C(\C(=O)N[C@@H]1C(=O)N2C(C(=O)[O-])=C(C[N+]3(C)CCCC3)CS[C@H]12)c1csc(N)n1 | > 300 | > 30 | > 300 | > 30 | > 30 | > 300 | > 300 |  |  |  |
| Nc1nc(N)c2nc(-c3ccccc3)c(N)nc2n1 | > 30 | > 30 | > 30 | > 30 | > 30 |  | > 30 | > 30 | > 30 | > 30 |
| C[C@H]1O[C@H](O[C@H]2[C@H](O)[C@@H](O)[C@@H](O[C@H]3[C@H](O)[C@@H](O)C(O)O[C@@H]3CO)O[C@@H]2CO)[C@H](O)[C@@H](O)[C@@H]1N[C@H]1C=C(CO)[C@@H](O)[C@H](O)[C@H]1O (stereo partly drawn) [ACARBOSE] | > 30 | > 30 | > 10 | > 10 | > 30 |  | > 30 | > 30 | > 30 | > 30 |
| Oc1ncnc2[nH]ncc12 [ALLOPURINOL] | > 10 | > 10 | > 10 | > 10 | > 30 |  | > 30 | > 30 | > 30 | > 30 |
| N[C@@H](C(=O)N[C@@H]1C(=O)N2C(C(=O)O)=C(Cl)CS[C@H]12)c1ccccc1 [CEFACLOR ANHYDROUS] | > 30 |  | > 30 | > 30 | > 30 | > 30 | > 30 |  |  |  |
| COC(=O)[C@@H]1CC2=CC(=O)CC[C@]2(C)[C@@]23O[C@@H]2C[C@@]2(C)[C@@H](CC[C@@]24CCC(=O)O4)[C@H]13 [EPLERENONE] | > 30 | > 10 | > 30 | > 10 |  | > 30 | > 30 |  |  |  |
| C[C@@H]1O[C@@H]1P(=O)(O)O [FOSFOMYCIN] | > 10 | > 10 | > 10 | > 10 | > 30 | > 10 |  |  |  |  |
| CC(C)Cc1ccc(CC(=O)O)cc1 [IBUFENAC] | > 30 |  | > 30 |  |  | > 30 | > 30 |  |  |  |
| CN1C(=O)CC(C)(c2ccccc2)C1=O (stereo not drawn) [METHSUXIMIDE] | > 10 | > 10 | > 10 | > 10 | > 10 | > 10 |  |  |  |  |
| NC(=O)c1ncn([C@@H]2O[C@H](CO)[C@@H](O)[C@H]2O)c1O [MIZORIBINE] | > 30 |  |  | > 30 | > 30 | > 30 | > 30 |  |  |  |
| NC(=O)c1cnccn1 [PYRAZINAMIDE] | > 30 | > 30 | > 30 | > 30 | > 30 |  | > 30 | > 30 | > 30 | > 30 |
| CS(=O)(=O)c1ccc([C@@H](O)[C@@H](CO)NC(=O)C(Cl)Cl)cc1 [THIAMPHENICOL] | > 30 | > 30 | > 30 | > 30 | > 30 |  | > 30 | > 30 | > 30 | > 30 |
